The values below come from the NIST ThermoML archive (doi:10.1021/je700717w).

A short description of data set [1]: xn = mol fraction of the nth substance listed. The note with it: 101 kPa, Liquid, Taylor dispersion method, x1 = 0.
For data set [2] the following is noted: 101 kPa, Liquid, Taylor dispersion method.

Consider `[N-]=[N+]=O` [nitrous oxide] + O, for which the binary diffusion coefficient in data set [1] (293.15 K) was 1.7e-09 m2/s; in data set [1] (298.15 K), 2.05e-09 m2/s; in data set [1] (303.15 K), 2.3e-09 m2/s; in data set [1] (313.15 K), 2.99e-09 m2/s; in data set [1] (323.15 K), 4.02e-09 m2/s; in data set [1] (333.15 K), 4.9e-09 m2/s. Moreover, the binary diffusion coefficient in data set [1] (343.15 K) came to 5.79e-09 m2/s; in data set [1] (353.15 K), 7.09e-09 m2/s; in data set [1] (363.15 K) it was 8.23e-09 m2/s; in data set [1] (368.15 K) it was 8.87e-09 m2/s.
As for `O` [water], the self diffusion coefficient in data set [2] (293.15 K) was determined as 1.7e-09 m2/s; in data set [2] (298.15 K), 2.05e-09 m2/s; in data set [2] (303.15 K) it was 2.3e-09 m2/s; in data set [2] (313.15 K), 2.99e-09 m2/s; in data set [2] (323.15 K) it was 4.02e-09 m2/s; in data set [2] (333.15 K) it was 4.9e-09 m2/s. Moreover, the self diffusion coefficient in data set [2] (343.15 K) was 5.79e-09 m2/s; in data set [2] (353.15 K), 7.09e-09 m2/s; in data set [2] (363.15 K), 8.23e-09 m2/s; in data set [2] (368.15 K), 8.87e-09 m2/s.
